# Assay results taken from patent US20080269326A1, “Use of 1-Phenyl-3-Dimethylamino-propane Compounds for Treating Neuropathic Pain” (GRUENENTHAL GmbH, priority 2007, published 2008).
# How the values were obtained:
# [1] = system: cold allodynia in Bennett animals; assay: Bennett model (chronic constriction injury), cold allodynia on 4° C. cold metal plate; assay type: in vivo, rat
# Description: The effectiveness in treating neuropathic pain was investigated in the Bennett model (chronic constriction injury; Bennett and Xie, 1988, Pain 33: 87-107).
# Sprague-Dawley rats weighing 140-160 g are provided with four loose ligatures of the right sciatic nerve under nembutal narcosis. The animals develop a hypersensitivity in the paw innervated by the damaged nerve, which after a healing phase of one week is quantified over about four weeks by means of a 4° C. cold metal plate (cold allodynia). The animals are observed for two minutes on this plate and the number of retractive movements of the damaged paw are measured. The effect of the substance is determined with reference to the base value before application of the substance, at four different times over a period of one hour(15, 30, 45 and 60 minutes after application) and the resultant area under the curve (AUD) as well as the inhibition of cold allodynia at the individual measurement points is expressed in percent effect with reference to the vehicle control (AUD) and to the initial value (individual measurement points). The cohort size is n=10.
# [2] = system: tactile allodynia in Chung animals; assay: Chung model (spinal nerve ligature), tactile allodynia, electronic von Frey; assay type: in vivo; conditions: Rattus norvegicus, ip, 0.5 h; rats, i.p., 30 minutes after administration
# Description: Spinal nerve ligatures according to Kim & Chung (1992 Pain 50, 355-363) were applied to the left L5/L6 spinal nerves of male Spraque-Dawley rats. Four to six days after the operation the tactile threshold baseline (withdrawal threshold) was measured on the ipsilateral and contralateral rear paw by an electronic von Frey anaesthesiometer (IITC Life Science, USA). After the test and measurement of the baseline, morphine, gabapentin and some of the aforementioned compounds used according to the invention were administered. The tactile withdrawal thresholds were measured 30 minutes after the administration. The results are expressed as ED50 and % maximal possible effect (% MPE) on the ipsilateral side, in which the baseline is taken as 0% and the withdrawal threshold of a control group is taken as 100% MPE.
# [3] = system: mechanical hyperalgesia in diabetic animals; assay: Streptozotocin diabetic neuropathy, mechanical hyperalgesia (Randall and Sellito); assay type: in vivo, rat; conditions: diabetic rats
# Description: Male Sprague-Dawley rats weighing 160-180 g received an intra-peritoneal injection of streptozotocin (75 mg/kg body weight) dissolved in pH 4.6 citrate buffer. One week later diabetic animals were identified by measuring the blood glucose level, and those with a blood glucose level of ≧17 mM were included in the study. Three and four weeks after administration of streptozotocin the mechanical reaction threshold was measured in diabetic animals by the method of Randall and Sellito (1957 Arch. Int. Pharmacody. […]:409-419) before (pre-test) and at various times after administration of the test substance or vehicle (post-test). […] The maximum pressure exerted on the rear paw was 250 g. The end point of the mechanical reaction threshold in grams was determined based on the reaction of the animal (withdrawal of the rear paw, vocalisation or evasive reaction). The size of the cohort in the individual dose stages was n=10. The maximum possible response in percent (% MPE=% of maximum possible effect) was calculated according to the formula:
# % MPE=(post-test−pre-test)/(250−pre-test)×100.
# ED50 values (dose at which 50% maximum inhibition occurred) were determined by regression analysis from the % MPE values at the time of the maximum effect.
compound,measurement,setting,value
"CC[C@@H](c1cccc(O)c1)[C@@H](C)CN(C)C [Compound 9, (1R,2R)-3-(3-dimethylamino-1-ethyl-2-methylpropyl)-phenol]",Cold allodynia (% AUD) Naïve animals,[1]; 10 mg/kg i.p.,49.3 % AUD
same,Cold allodynia (% AUD) Naïve animals,[1]; 21.5 mg/kg i.p.,53.4 % AUD
same,ED50,"[1]; Rattus norvegicus, ip, rats",13 mg/kg
same,ED50,[2],8.15 mg/kg
same,ED50,"[3]; Rattus norvegicus, ip, i.p., read-out: Mechanical hyperalgesia ED50 (95% confidence region)",8.9 mg/kg
same,Mechanical hyperalgesia Maximum effect in % MPE,[3]; 31.6 mg/kg i.p.,100% (31.6 mg/kg) % MPE
same,maximum effect compared among the tested compounds,[3]; i.p.,highest maximum effect
